Results on 3 molecules are retold here after patent publication US6723735B1, “Imidazo-pyridine derivatives as ligands for GABA receptors” (Merck Sharp & Dohme Ltd., priority 1999, dated 2004).

Structures can show the parent of a compound that is named as a salt.

`c1cc(-n2ccnc2)cc(-n2cnc3cc(-c4ccoc4)cnc32)c1` (as salt: oxalate) [Example 3, 6-(Furan-3-yl)-3-[3-(imidazol-1-yl)phenyl]-3H-imidazo[4,5-b]pyridine] registered a melting point of 202 to 204 °C. As for `c1cncc(-c2cccc(-n3cnc4cc(-c5ccoc5)cnc43)c2)c1` [Example 1, 6-(Furan-3-yl)-3-[3-(pyridin-3-yl)phenyl]-3H-imidazo[4,5-b]pyridine], the figure is 191 to 192 °C. As for `c1ccc(-c2cnc3c(c2)ncn3-c2cccc(-c3cccnc3)c2)cc1` [Example 5, 6-Phenyl-3-[3-(pyridin-3-yl)phenyl]-3H-imidazo[4,5-b]pyridine], the figure is 179 to 180 °C.
